Reference: ChEMBL document CHEMBL1156268, “Michael acceptor based antiplasmodial and antitrypanosomal cysteine protease inhibitors with unusual amino acids” (J Med Chem, 2010)
Activity calls are given as the source filed them. The rule behind the calls is not given here.

How the values were obtained:
[1] = Inhibition of Plasmodium falciparum recombinant falcipain-2 using Cbz-Leu-Arg-AMC as substrate by standard fluorescence assay
[2] = test system: Trypanosoma brucei brucei; experiment: Antitrypanosomal activity against Trypanosoma brucei brucei; format: functional, organism-based
[3] = target: Rhodesain (Trypanosoma brucei rhodesiense) (UniProt Q95PM0); experiment: Inhibition of Trypanosoma brucei rhodesiense recombinant rhodesain at 100 uM by standard fluorescence assay
Chain of Rhodesain (Trypanosoma brucei rhodesiense) (Q95PM0 1-450): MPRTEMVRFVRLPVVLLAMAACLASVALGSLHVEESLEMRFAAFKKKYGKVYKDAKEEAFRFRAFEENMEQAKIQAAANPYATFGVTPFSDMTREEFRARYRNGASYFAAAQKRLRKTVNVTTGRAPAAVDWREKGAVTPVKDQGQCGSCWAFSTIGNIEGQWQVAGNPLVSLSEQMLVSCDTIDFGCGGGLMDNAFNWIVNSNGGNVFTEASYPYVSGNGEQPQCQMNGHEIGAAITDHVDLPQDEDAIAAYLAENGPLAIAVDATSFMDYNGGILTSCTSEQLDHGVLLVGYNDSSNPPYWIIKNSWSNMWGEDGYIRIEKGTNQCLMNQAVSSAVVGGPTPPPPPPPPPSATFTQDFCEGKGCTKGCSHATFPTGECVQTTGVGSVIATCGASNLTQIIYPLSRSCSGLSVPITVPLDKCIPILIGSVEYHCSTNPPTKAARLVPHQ

[4] = test system: Plasmodium falciparum; experiment: Antiplasmodial activity against Plasmodium falciparum W2 at 100 uM by flow cytometry; format: functional
[5] = test system: Plasmodium falciparum; experiment: Inhibition of Plasmodium falciparum recombinant falcipain-3 at 100 uM by standard fluorescence assay
[6] = Cytotoxicity against mouse J774.1 cells; format: cell-based
[7] = Inhibition of Plasmodium falciparum recombinant falcipain-3 by standard fluorescence assay
[8] = target: Rhodesain (Trypanosoma brucei rhodesiense) (UniProt Q95PM0); experiment: (§1) Inhibition of Trypanosoma brucei rhodesiense recombinant rhodesain by standard fluorescence assay; settings: TDE = time-dependent effect
[9] = target: T1, Rhodesain (Trypanosoma brucei rhodesiense, UniProt Q95PM0); experiment: as §1
T1 sequence (Q95PM0 whole entry): as the sequence (Q95PM0 1-450) above

[10] = test system: Plasmodium falciparum; experiment: Antiplasmodial activity against Plasmodium falciparum W2 by flow cytometry; format: functional, organism-based
[11] = target: T1, Rhodesain; experiment: Inhibition of Trypanosoma brucei rhodesiense recombinant rhodesain by standard fluorescence assay in presence of DTT
[12] = Selectivity index, ratio of IC50 for mouse J774.1 cells to IC50 for Trypanosoma brucei brucei; format: toxicity; settings: J774.1 cells versus Trypanosoma brucei brucei, read-out: Ratio IC50
[13] = test system: Trypanosoma brucei brucei; experiment: Antitrypanosomal activity against Trypanosoma brucei brucei at 100 uM; format: functional, organism-based
[14] = test system: Plasmodium falciparum; experiment: Antiplasmodial activity against Plasmodium falciparum FCBR by flow cytometry; format: functional, organism-based; settings: FCBR/Columbia
[15] = test system: Plasmodium falciparum; experiment: Inhibition of Plasmodium falciparum recombinant falcipain-2 at 100 uM by standard fluorescence assay
[16] = Inhibition of Plasmodium falciparum recombinant falcipain-2 using Cbz-Phe-Arg-AMC as substrate by standard fluorescence assay
[17] = test system: Plasmodium falciparum; experiment: Antiplasmodial activity against Plasmodium falciparum W2 at 10 uM by flow cytometry; format: functional
[18] = target: T1, Rhodesain; experiment: Inhibition of Trypanosoma brucei rhodesiense recombinant rhodesain using high concentration of enzyme by standard fluorescence assay
[19] = target: T1, Rhodesain; experiment: Inhibition of Trypanosoma brucei rhodesiense recombinant rhodesain using high concentration of enzyme by standard fluorescence assay in presence of detergent
[20] = target: T1, Rhodesain; experiment: Inhibition of Trypanosoma brucei rhodesiense recombinant rhodesain using low concentration of enzyme by standard fluorescence assay
[21] = target: T1, Rhodesain; experiment: Inhibition of Trypanosoma brucei rhodesiense recombinant rhodesain using low concentration of enzyme by standard fluorescence assay in presence of detergent

Ki [1] [µM] | IC50 [2] [µM] | inhibition [3] | inhibition [5] | IC50 [10] [µM] | Compound | IC50 [6] [µM] | Ki [7] [µM] | Ki [9] [µM] | inhibition [13] | further results
29.1 | 19 | 36% | inactive | – | CCOC(=O)/C=C/CCOC(=O)[C@H](Cc1ccccc1)NC(=O)OCc1ccccc1 | > 100 | – | – | – | inhibition [4]: inactive
7.6 | – | inactive | – | 100 | O=C(O)/C=C\C(=O)N[C@@H](Cc1ccccc1)C(=O)OCc1ccccc1 | – | 43 | – | inactive | –
– | 29 | 47% | – | 43.1 | CCOC(=O)/C=C\CNC(=O)[C@@H](Cc1ccccc1)NC(=O)OC(C)(C)C | – | – | – | – | inhibition [15]: inactive
– | 25.5 | inactive | – | – | CCOC(=O)/C=C\C(=O)N[C@@H](CCC(=O)NC(c1ccccc1)(c1ccccc1)c1ccccc1)C(=O)OC | – | – | – | – | inhibition [15]: inactive; inhibition at 10 µM [17]: 30%
– | – | inactive | inactive | 13.2 | CCOC(=O)/C=C/COC(=O)[C@H](CC(N)=O)NC(=O)[C@@H](NC(=O)OC(C)(C)C)C1CCCCC1 | – | – | – | inactive | inhibition [15]: inactive
26.1 | 8 | 15% | inactive | – | CCOC(=O)/C=C\C(=O)N[C@@H](Cc1ccccc1)C(=O)OCc1ccccc1 | 3.3 | – | – | – | inhibition at 100 µM [4]: 28%
– | – | inactive | inactive | 75.3 | CCOC(=O)/C=C/C(=O)N[C@@H](CCC(N)=O)C(=O)OC(C)(C)C | – | – | – | inactive | inhibition [15]: inactive
– | 33.2 | 51% | – | – | CCOC(=O)/C=C/C(=O)O.CCOC(=O)/C=C/C(=O)OC[C@H](CC(N)=O)NC(=O)[C@@H](NC(=O)OC(C)(C)C)c1ccccc1 | – | – | – | – | IC50 [14]: 21.7 µM; inhibition [15]: 45%
16.7 | – | inactive | – | 100 | CCOC(=O)/C=C\[C@H](Cc1ccccc1)NC(=O)OC(C)(C)C | – | 198 | – | inactive | –
17 | – | inactive | – | 34.8 | CCOC(=O)/C=C/COC(=O)[C@H](CC(N)=O)NC(=O)OC(C)(C)C | – | 58 | – | inactive | –
6.6 | 14.9 | 29% | – | 28.4 | CCOC(=O)/C=C\C(=O)N[C@@H](Cc1ccccc1)C(=O)N[C@@H](C)C(=O)N[C@@H](CC(C)C)C(=O)OCc1ccccc1 | 29 | 36.8 | – | – | –
20.3 | 2.8 | inactive | inactive | – | C/C=C/C(=O)N[C@@H](Cc1ccccc1)C(=O)OCc1ccccc1 | 45.2 | – | – | – | inhibition [4]: inactive
152 | 25 | inactive | inactive | – | CCOC(=O)/C=C/CN[C@@H](Cc1ccccc1)C(=O)OCc1ccccc1 | 36.1 | – | – | – | inhibition [4]: inactive
0.025 | – | – | – | – | CC(C)C[C@H](NC(=O)[C@H]1O[C@@H]1C(=O)O)C(=O)NCCCCN=C(N)N [E-64] | – | 0.22 | – | – | IC50 [14]: 3.2 µM
25.1 | 2.7 | 43% | inactive | – | CCOC(=O)/C=C\C(=O)N[C@@H](Cc1ccccc1)C(=O)N[C@@H](C)C(=O)OCc1ccccc1 | 3 | – | – | – | inhibition [4]: inactive
3.1 | – | inactive | – | 20.8 | CCOC(=O)/C=C/COC(=O)[C@H](CCC(N)=O)NC(=O)[C@H](CC(C)C)NC(=O)[C@H](C)NC(=O)OC(C)(C)C | – | 23.9 | – | inactive | –
– | – | inactive | inactive | – | CCOC(=O)/C=C/CN[C@@H](CC(N)=O)C(=O)OC(C)(C)C | – | – | – | inactive | inhibition [15]: inactive; inhibition [4]: inactive
– | – | inactive | inactive | – | CCOC(=O)/C=C/C(=O)O.CCOC(=O)/C=C/C(=O)OC[C@H](CC(N)=O)NC(=O)OC(C)(C)C | – | – | – | inactive | inhibition [15]: inactive; inhibition [4]: inactive

Compound | Ki [1] [µM] | IC50 [2] [µM] | inhibition [3] | inhibition [5] | IC50 [10] [µM] | IC50 [6] [µM] | Ki [7] [µM] | Ki [9] [µM] | inhibition [13] | further results
CCOC(=O)/C=C/[C@H](CCC(=O)NC(c1ccccc1)(c1ccccc1)c1ccccc1)NC(=O)OC(C)(C)C | 1.8 | 2.8 | – | – | 4 | > 100 | 8.2 | 4.3 | – | Time-dependent inhibition (qualitative) [8]: tde; Ki [11]: 3.6 µM; selectivity ratio [12]: > 36
CCOC(=O)/C=C/[C@@H](CCC(=O)NC(c1ccccc1)(c1ccccc1)c1ccccc1)NC(=O)[C@@H](NC(=O)OC(C)(C)C)c1ccccc1 | 0.49 | 3.5 | – | – | – | 60 | – | 0.14 | – | Time-dependent inhibition (qualitative) [8]: tde; IC50 [14]: 0.9 µM; selectivity ratio [12]: 17
O=C(/C=C/C(=O)N[C@@H](Cc1ccccc1)C(=O)OCc1ccccc1)N[C@@H](Cc1ccccc1)C(=O)OCc1ccccc1 | 0.98 | – | – | – | – | – | 2.8 | 0.34 | inactive | Time-dependent inhibition (qualitative) [8]: tde; inhibition [4]: inactive
CCOC(=O)/C=C/C(=O)N[C@@H](Cc1ccccc1)C(=O)OCc1ccccc1 | 4.7 | 0.25 | – | – | – | 3.5 | 65.9 | 7.6 | – | inhibition [4]: inactive; selectivity ratio [12]: 10
CCOC(=O)/C=C/CN[C@@H](CCC(N)=O)C(=O)N[C@H](C(=O)N[C@H](C(=O)N[C@@H](C)C(=O)OCc1ccccc1)C(C)C)C1CCCCC1 | 6.7 | – | – | – | 35.8 | – | 28.4 | 5.8 | – | Ki [16]: 5.4 µM
C[C@H](NC(=O)[C@H](Cc1ccccc1)NC(=O)/C=C\C(=O)N[C@@H](Cc1ccccc1)C(=O)OCc1ccccc1)C(=O)O | 3.8 | 2.2 | – | – | 8 | 32 | 42.2 | 1.4 | – | selectivity ratio [12]: 10
CCOC(=O)/C=C/[C@H](CCC(=O)NC(c1ccccc1)(c1ccccc1)c1ccccc1)NC(=O)[C@@H](NC(=O)OC(C)(C)C)c1ccccc1 | 0.45 | 31 | – | – | 3.9 | – | 1.4 | 0.47 | – | Time-dependent inhibition (qualitative) [8]: tde; Ki [18]: 0.64 µM; Ki [19]: 0.4 µM; Ki [20]: 0.64 µM; Ki [21]: 0.3 µM
O=C(/C=C\C(=O)N[C@@H](Cc1ccccc1)C(=O)OCc1ccccc1)N[C@@H](Cc1ccccc1)C(=O)O | 10.2 | 2.9 | – | inactive | 100 | 31 | – | 0.15 | – | selectivity ratio [12]: 10
CCOC(=O)/C=C/C(=O)N[C@@H](CCC(=O)NC(c1ccccc1)(c1ccccc1)c1ccccc1)C(=O)OC | 3.3 | 31 | – | – | 4.7 | – | 14.7 | 1.4 | – | –
